From the NIST ThermoML archive (doi:10.1021/je9009283)
± gives the expanded uncertainty stated by the source.

How the values were obtained:
[1] = refractive index (Na D-line) (dimensionless); conditions: 293.1 K; 101.33 kPa; Liquid; Standard Abbe refractometry
[2] = for mass density: 293.1 K, 101.33 kPa, Liquid, Pycnometric method; for Glass transition temperature / Normal melting temperature: DTA; for Normal melting temperature: Crystal
[3] = Molar enthalpy of transition or fusion; conditions: Crystal; DSC

Row | SMILES | refractive index [1] | mass density [2] [kg/m3] | Glass transition temperature [2] [°C] | Molar enthalpy of transition or fusion [3] [kcal/mol] | Normal melting temperature [2] [°C]
1 | CCCCCCCC[n+]1cccc(C)c1C.O=S(=O)([N-]S(=O)(=O)C(F)(F)F)C(F)(F)F | 1.4571 ± 0.01 | 1290 ± 20 | -70.0 ± 2 |  | 
2 | CCCCCCCC[n+]1cc(CC)ccc1C.[I-] [5-ethyl-2-methyl-1-octylpyridinium iodide] |  |  | -33.0 ± 2 | 7.38 ± 0.217 | 87.0 ± 2
3 | CCCCCCCC[n+]1cc(C)cc(C)c1.O=S(=O)([O-])C(F)(F)F |  |  |  | 5.93 ± 0.182 | 76.0 ± 2
4 | CCCC[n+]1cc(C)cc(C)c1C.O=S(=O)([O-])C(F)(F)F |  |  |  | 5.01 ± 0.16 | 74.0 ± 2
5 | CCCCCCCC[n+]1cc(CC)ccc1C.O=S(=O)([N-]S(=O)(=O)C(F)(F)F)C(F)(F)F |  | 1280 ± 20 | -78.0 ± 2 |  | 
6 | CCCC[n+]1cccc(C)c1C.N#C[N-]C#N [1-butyl-2,3-dimethylpyridinium dicyanamide] | 1.5403 ± 0.0016 |  | -72.0 ± 2 |  | 
7 | CCCCCCCC[n+]1cccc(C)c1C.N#C[S-] [2,3-dimethyl-1-octylpyridinium thiocyanate] | 1.5489 ± 0.0016 | 1020 ± 20 | -65.0 ± 2 |  | 
8 | CCCC[n+]1cc(C)cc(C)c1.O=S(=O)([N-]S(=O)(=O)C(F)(F)F)C(F)(F)F | 1.4559 ± 0.0016 | 1390 ± 20 | -73.0 ± 2 |  | 
9 | CCCC[n+]1cc(C)cc(C)c1.N#C[N-]C#N [1-butyl-3,5-dimethylpyridinium dicyanamide] | 1.5278 ± 0.0016 |  | -80.0 ± 2 | 0.92 ± 0.0765 | -1.0 ± 2
10 | CCCCCCCC[n+]1cc(C)cc(C)c1.N#C[S-] [3,5-dimethyl-1-octylpyridinium thiocyanate] | 1.5415 ± 0.0016 | 1000 ± 20 | -74.0 ± 2 | 1.53 ± 0.086 | -38.0 ± 2
11 | CCCCCCCC[n+]1cc(C)cc(C)c1C.O=S(=O)([N-]S(=O)(=O)C(F)(F)F)C(F)(F)F | 1.4617 ± 0.0016 | 1280 ± 20 | -72.0 ± 2 |  | 
12 | CCCCCCCC[n+]1cc(C)cc(C)c1.F[B-](F)(F)F [3,5-dimethyl-1-octylpyridinium tetrafluoroborate] |  |  |  | 6.71 ± 0.201 | 56.0 ± 2
13 | CCCC[n+]1cccc(C)c1C.O=S(=O)([O-])C(F)(F)F | 1.4748 ± 0.0016 | 1370 ± 20 | -69.0 ± 2 | 4.03 ± 0.139 | 17.0 ± 2
14 | CCCC[n+]1cccc(C)c1C.O=S(=O)([N-]S(=O)(=O)C(F)(F)F)C(F)(F)F | 1.4497 ± 0.0016 | 1370 ± 20 | -81.0 ± 2 |  | 
15 | CCCCCCCC[n+]1cc(C)cc(C)c1C.[I-] [2,3,5-trimethyl-1-octylpyridinium iodide] | 1.5776 ± 0.0016 |  | -31.0 ± 2 |  | 
16 | CCCC[n+]1cc(CC)ccc1C.O=S(=O)([N-]S(=O)(=O)C(F)(F)F)C(F)(F)F | 1.4552 ± 0.0016 | 1370 ± 20 | -81.0 ± 2 |  | 
17 | CCCCCCCC[n+]1cccc(C)c1C.O=S(=O)([O-])C(F)(F)F | 1.4725 ± 0.0016 | 1180 ± 20 | -63.0 ± 2 |  | 
18 | CCCCCCCC[n+]1cc(C)cc(C)c1.[I-] [3,5-dimethyl-1-octylpyridinium iodide] |  |  | -41.0 ± 2 | 6.08 ± 0.186 | 82.0 ± 2
19 | CCCCCCCC[n+]1cc(C)cc(C)c1.N#C[N-]C#N [3,5-dimethyl-1-octylpyridinium dicyanamide] | 1.5196 ± 0.0016 | 1000 ± 20 | -78.0 ± 2 |  | 
20 | CCCCCCCC[n+]1cc(CC)ccc1C.N#C[N-]C#N [5-ethyl-2-methyl-1-octylpyridinium dicyanamide] |  |  | -59.0 ± 2 |  | 53.0 ± 2
21 | CCCC[n+]1cc(C)cc(C)c1C.O=S(=O)([N-]S(=O)(=O)C(F)(F)F)C(F)(F)F | 1.4583 ± 0.0016 | 1370 ± 20 | -74.0 ± 2 |  | 
22 | CCCCCCCC[n+]1cc(C)cc(C)c1C.O=S(=O)([O-])C(F)(F)F |  |  | -56.0 ± 2 |  | 
23 | CCCCCCCC[n+]1cc(C)cc(C)c1.O=S(=O)([N-]S(=O)(=O)C(F)(F)F)C(F)(F)F | 1.4526 ± 0.01 | 1280 ± 20 | -78.0 ± 2 |  | 
24 | CCCCCCCC[n+]1cc(C)cc(C)c1C.N#C[S-] [2,3,5-trimethyl-1-octylpyridinium thiocyanate] |  |  | -58.0 ± 2 | 3.5 ± 0.127 | 20.0 ± 2
25 | CCCC[n+]1cc(C)cc(C)c1.N#C[S-] [1-butyl-3,5-dimethylpyridinium thiocyanate] |  |  | -57.0 ± 2 | 3.83 ± 0.134 | 13.0 ± 2
26 | CCCC[n+]1cc(C)cc(C)c1.O=S(=O)([O-])C(F)(F)F |  | 1390 ± 20 |  | 6.81 ± 0.203 | 91.0 ± 2
